The values that follow come from US20110152332A1, “Pesticidal Heterocyclic Compounds” (Bayer CropScience AG, priority 2009, published 2011).

Structures are written as SMILES.

What all share (assay type): in vivo
One data set has as its system Boophilus microplus. Kind of data set: Boophilus microplus (dip). The conditions noted are these: application rate 100 ppm; adult engorged female ticks dipped one minute; after 7 days. The protocol:
Solvent: dimethylsulfoxid
To produce a suitable preparation of active compound, 10 mg of active compound are dissolved in 0.5 ml solvent, and the concentrate is diluted with water to the desired concentration. Eight to ten adult engorged female Boophilus microplus ticks are placed in perforated plastic beakers and immersed in aqueous compound solution for one minute. Ticks are transferred to a filter paper in a plastic tray. Egg deposition of fertile eggs is monitored after. After 7 days mortality in % is determined. 100% means that all the ticks have been killed; 0% means that none of the ticks have been killed.

Data set [1] concerns Cucurbit leaf beetle (Aulacophora femoralis). As to the kind of experiment: Test against cucurbit leaf beetle (Aulacophora femoralis), leaf dip. To be noted: active compound concentration 100 ppm; second instar larvae on dipped cucumber leaves; after 7 days. The protocol:
(§1) Unless described otherwise, the test solutions were prepared as follows:
(§2) The active compound, 1 part by weight of the active compound was admixed with the solvent in the above described amount which contains the emulsifying agent in the above described amount. The mixture was then diluted with water to specific concentration.
(§3) In order to prepare the test solution containing the active compound, 1 part by weight of the active compound was admixed with 3 parts by weight of the solvent dimethyl formamide which contains 1 part by weight of the emulsifying agent polyoxyethylene alkylphenyl ether. This mixture is then diluted with water to the specific concentration.
(§4) Solvent: dimethyl formamide, 3 parts by weight; emulsifying agent: polyoxyethylene alkylphenyl ether, 1 part by weight
Leaves of cucumber were immersed in the test solution at the appropriate concentration, and the leaves were dried in air. The leaves were then put in a plastic cup containing sterilized black soil and five Aulacophora femoralis at second instar larvae were released in the cup. The cups were placed in a temperature-controlled chamber at 25° C. After 7 days, the number of dead larvae was counted, and thus the insecticidal activity was calculated. An insecticidal activity of 100% means that all larvae were killed, whereas an insecticidal activity of 0% means that no larva was killed.

The next data set concerns Ctenocephalides felis. As to the kind of experiment: Ctenocephalides felis-test (CTECFE). The conditions noted are these: application rate 100 ppm in cattle blood, adult unfed fleas, after 2 days. The protocol: (§5) Solvent: dimethyl sulfoxide
To produce a suitable preparation of active compound, 10 mg of active compound are dissolved in 0.5 ml solvent, and the concentrate is diluted with cattle blood to the desired concentration. Approximately 20 adult unfed (Ctenocephalides felis) are placed in flea chambers. The blood chamber, sealed with parafilm on the bottom, are filled with cattle blood supplied with compound solution and placed on top of the flea chamber, so that the fleas are able to suck the blood. The blood chamber is heated to 37° C. whereas the flea chamber is kept at room temperature. After 2 days mortality in % is determined. 100% means that all the fleas have been killed; 0% means that none of the fleas have been killed.

The subject of data set [2] is Tobacco cutworm (Spodoptera litura) larvae. As to the kind of experiment: Test against tobacco cutworm (Spodoptera litura) larvae, leaf dip. To be noted: active compound concentration 100 ppm; third instar larvae on dipped sweet potato leaves; after 7 days. The protocol: as §1, §2, §3, §4
Leaves of sweet potato were immersed in the test solution at the appropriate concentration, and the leaves were dried in air. The leaves were then placed in a petri dish having a diameter of 9 cm, and ten Spodoptera litura at third instar larvae were released therein. The petri dishes were placed in a temperature-controlled chamber at 25° C. After 2 days and 4 days more sweet potato leaves were added. After 7 days, the number of dead larvae was counted to calculate the insecticidal activity. An insecticidal activity of 100% means that all larvae were killed, whereas an insecticidal activity of 0% means that no larva was killed. In the current test, the results of two petri dishes for each treatment were averaged.

In data set [3] the test system is Lucilia cuprina 1st instar larvae. Kind of data set: Lucilia cuprina-test (LUCICU 48 h). The conditions noted are these: application rate 100 ppm, 1st instar larvae on minced horse meat, after 2 days, read-out: activity (percentage of larval mortality). The protocol:
Species: Lucilia cuprina 1st instar larvae (age 24 hrs)
as §5
10 mg active compound are dissolve in 0.5 ml Dimethylsulfoxid. Serial dilutions are made to obtain the desired rates. Approximately 20 Lucilia cuprina 1st instar larvae are transferred into a test tube containing 1 cm^3 of minced horse meat and 0.5 ml aqueous dilution of test compound. After 2 days percentage of larval mortality are recorded. 100% efficacy=all larvae are killed, […].

Data set [4] relates to Two-spotted spider mite (Tetranychus urticae). As to the kind of experiment: Test against two-spotted spider mite (Tetranychus urticae), spray. The conditions noted are these: active compound concentration 100 ppm; adult mites on kidney bean, sprayed; after 7 days. The protocol: as §1, §2, §3, §4
50 to 100 adult mites of Tetranychus urticae were inoculated to leaves of kidney bean at two-leaf stage planted in a pot of 6 cm in diameter. After one day, test solution at the appropriate concentration was sprayed thereon in a sufficient amount using a spray gun. After the spraying, the plant pot was placed inside a greenhouse, and after 7 days, the acaricidal activity was calculated. An acaricidal activity of 100% means that all mites were killed, whereas an acaricidal activity of 0% means that no mite was killed.

In another data set the test system is Musca domestica. Kind of data set: Musca domestica-test. To be noted: application rate 100 ppm, adults, sugar/compound soaked sponge, after 2 days. The protocol: as §5
To produce a suitable preparation of active compound, 10 mg of active compound are dissolved in 0.5 ml solvent, and the concentrate is diluted with water to the desired concentration. Prior to the assay, a piece of kitchen sponge is soaked with a mixture of sugar and compound solution and placed into a container. 10 adults (Musca domestica) are placed into the container and closed with a perforated lid. After 2 days mortality in % is determined. 100% means that all the flies have been killed; 0% means that none of the flies have been killed.

As to `CC(=O)NCc1ccc(N2CC(c3cc(Cl)cc(Cl)c3)(C(F)(F)F)OC2=O)cc1C(F)(F)F` (centres unmarked) [Compound 1-2], the “activity (mortality in %)” value came to 80% in the data set with Boophilus microplus and 95% in the data set on Ctenocephalides felis. Besides, the insecticidal activity in data set [1] and in data set [2] was 100% in each case.
In the case of `CCC(=O)NCc1ccc(N2CC(c3cc(Cl)cc(Cl)c3)(C(F)(F)F)OC2=O)cc1C(F)(F)F` (centres unmarked) [Compound 1-3, N-{4-[5-(3,5-dichlorophenyl)-2-oxo-5-(trifluoromethyl)-1,3-oxazolin-3-yl]-2-(trifluoromethyl)benzyl}propane amide], the mortality at 100 ppm came to 100% in data set [3]; 95% in the data set on Ctenocephalides felis (Ctenocephalides felis, 48 h); 100% with Musca domestica (Musca domestica, 48 h). Further, the insecticidal activity in data set [1] and in data set [2] was 100% throughout. This compound also returned an acaricidal activity in data set [4] of 100%.
Consider `CC(=O)NCc1ccc(N2CC(c3cc(Cl)c(Cl)c(Cl)c3)(C(F)(F)F)OC2=O)cc1C(F)(F)F` (centres unmarked) [Compound 1-16], for which the “activity (mortality in %)” value in the data set with Boophilus microplus turned out to be 80%; with Musca domestica it was 90%. The insecticidal activity in data set [1] and in data set [2] was 100% each time. This compound also registered an acaricidal activity in data set [4] of 100%.
As to `CCC(=O)NCc1ccc(N2CC(c3cc(Cl)c(Cl)c(Cl)c3)(C(F)(F)F)OC2=O)cc1C(F)(F)F` (centres unmarked) [Compound 1-17], the “activity (mortality in %)” value is given as 100% in the data set on Boophilus microplus and 90% with Musca domestica. Besides, the insecticidal activity in data set [1] and in data set [2] was 100% each time. In data set [4], this compound displayed an acaricidal activity of 100%.
